Drawing on ChEMBL document CHEMBL1201862, “PubChem BioAssay data set” (2004), this text covers IC50 and AC50 for 14 compounds.

Calls of active or inactive are those of the source.

The target of the first assay is T1, Protein skinhead-1 (Caenorhabditis elegans, UniProt P34707).
T1 sequence (P34707 whole entry): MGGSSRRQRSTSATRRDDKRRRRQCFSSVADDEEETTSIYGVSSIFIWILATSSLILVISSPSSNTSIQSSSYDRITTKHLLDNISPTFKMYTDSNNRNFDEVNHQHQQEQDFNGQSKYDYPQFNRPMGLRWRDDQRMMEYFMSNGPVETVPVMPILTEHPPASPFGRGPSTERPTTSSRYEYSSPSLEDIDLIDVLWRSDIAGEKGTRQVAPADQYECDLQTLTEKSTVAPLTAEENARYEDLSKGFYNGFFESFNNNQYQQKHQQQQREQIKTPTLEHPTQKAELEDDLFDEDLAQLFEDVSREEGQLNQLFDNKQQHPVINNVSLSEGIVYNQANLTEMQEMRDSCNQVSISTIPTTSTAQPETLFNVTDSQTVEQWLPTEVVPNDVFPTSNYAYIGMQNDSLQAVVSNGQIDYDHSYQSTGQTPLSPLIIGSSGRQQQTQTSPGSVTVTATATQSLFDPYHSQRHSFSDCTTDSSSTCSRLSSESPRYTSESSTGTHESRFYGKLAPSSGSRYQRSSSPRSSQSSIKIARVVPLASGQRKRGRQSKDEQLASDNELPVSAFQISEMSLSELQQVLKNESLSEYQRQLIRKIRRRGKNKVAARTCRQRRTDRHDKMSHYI
Experiment: not given
The format is functional.
Consider `CCOc1cc2c(cc1OCC)C(C(=O)O)C(c1cc(OC)c(OC)c(OC)c1)N(C)C2=O` (centres undefined), for which the IC50 is > 100 µM (inactive).
`CSc1cccc(NC(=O)c2cccc3cccnc23)c1`: the IC50 is 14.7 µM (active).
On the same count and under the same terms, then `CCOC(=O)c1ccccc1NC(=O)Cc1ccccc1OC`, with > 100 µM (inactive); and `CSc1nsc(SCc2ccc(F)cc2)n1`, with 18.9 µM (active); and `O=C(CN1CCOCC1)c1cccc2ccccc12`, with > 100 µM (inactive).
Same read-out and setting: then `O=C(c1nc[nH]c1C(=O)N1CCc2ccccc2C1)N1CCc2ccccc2C1`, with > 100 µM (inactive).

Test system in another assay: not listed separately
Briefly: intracellular Trypanosoma cruzi inhibitors in host cells – cell-based, plate reader, cherry-pick samples, set 3, dose response (AID 651818).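 Also: compounds incubated with infected cells for about four days.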 The format is functional.
Consider `C[C@H](CO)N1C[C@H](C)[C@@H](CN(C)Cc2ccc(C(=O)Nc3ccccc3N)cc2)Oc2c(NC(=O)c3cnccn3)cccc2C1=O`, for which the half-maximal activity concentration (AC50) is 2.45 µM (active).
For the compound `C[C@H](CO)N1C[C@H](C)[C@H](CN(C)C(=O)Nc2ccc(C(F)(F)F)cc2)Oc2c(NC(=O)c3nc4ccccc4s3)cccc2C1=O`, the half-maximal activity concentration (AC50) was 2.35 µM (active).
Still for that read-out and setting: the figure for `Cc1ccc(S(=O)(=O)Nc2ccc3c(c2)C(=O)N([C@H](C)CO)C[C@H](C)[C@H](CN(C)Cc2ccc(C(F)(F)F)cc2)OCCCC[C@@H](C)O3)cc1` is 3.01 µM (active); for `C[C@H](CO)N1C[C@H](C)[C@@H](CN(C)Cc2ccc(C(F)(F)F)cc2)Oc2c(NC(=O)Nc3ccc(F)cc3)cccc2C1=O` it is 5.99 µM (active); for `C[C@H](CO)N1C[C@H](C)[C@H](CN(C)Cc2ccc3c(c2)OCO3)Oc2c(NC(=O)Nc3ccc(C(F)(F)F)cc3)cccc2C1=O` it is 0.956 µM (active).
On the same count and under the same terms, the figure for `C[C@@H]1CN([C@H](C)CO)C(=O)c2cccc(NS(=O)(=O)c3ccc(Cl)cc3)c2O[C@@H]1CN(C)Cc1ccccc1` is 20 µM (inactive); for `COc1ccc(S(=O)(=O)Nc2ccc3c(c2)CC(=O)N([C@H](C)CO)C[C@@H](C)[C@H](CN(C)CC2CCCCC2)O3)cc1` it is 2.97 µM (active).
Regarding `C[C@@H]1CN([C@@H](C)CO)C(=O)c2cccc(NC(=O)CCCCCC(=O)Nc3ccccc3N)c2O[C@@H]1CN(C)Cc1ccc(Cl)c(Cl)c1`, the half-maximal activity concentration (AC50) was 2.51 µM (active).

As usually defined, the IC50 is the concentration needed to halve the response being measured. As usually defined, the AC50 is the concentration at which the activity in the assay is half-maximal.
